Experimental data reported in patent publication US9040573B2, “Anti-fungal agent” (Nihon Nohyaku Co., Ltd., priority 2011, dated 2015).
Values after ≈ are worked out from the molar mass of the structure shown. Read-outs that look alike come from different tables or passages of the source.

Assays:
Scytalidium dimidiatum = assay: Antifungal Activity Test 1: MIC by broth microdilution method (Alamar Blue); format: cell-based; conditions: Neoscytalidium dimidiatum; for MIC: growth inhibited by 80% or more, read-out: MIC; for MIC90: concentration to be MIC in 9 strains out of the 10 strains (90%), read-out: MIC90
From the text: Scytalidium dimidiatum strain of clinical isolate obtained by separation and identification from nail or stratum corneum of patients with superficial mycosis was used. The fungi pre-cultured on an SDA medium was suspended in 0.1% (w/v) Tween 80-containing sterile saline and the suspension was filtered through gauze to collect arthrospore. This was suspended in 0.1% (w/v) Tween 80-containing sterile saline, and added to a 20% Alamar Blue-containing medium to 2×10^4 cells/mL to give a fungal inoculum solution.
(§1) Each drug was used after dissolving in DMSO (dimethyl sulfoxide).
(§2) The minimum inhibitory concentration (MIC) was measured by a broth microdilution method. That is, RPMI1640 medium (Sigma-Aldrich) was buffered with 0.165 M morpholine propanesulfonic acid (MOPS, Wako Pure Chemical Industries, Ltd.) to pH 7.0, and a given amount of a solution of the drug in DMSO was added thereto to prepare 2-fold dilution series within the range of 0.00098-4 μg/mL. This was added to a 96-well microplate by 100 μL, a fungal inoculum solution (100 μL, final concentration of fungi to be added: 1.0×10^4 cells/mL) was added, and the mixture was cultured at 35° C. An Alamar Blue reagent was added in advance to the culture medium (final addition concentration: 10%) and, at the time point when the Alamar Blue reagent in the drug-free growth control group changed from blue to red, the culture was discontinued and the absorbance (differential optical density at 570 nm based on 590 nm served as reference) measured. The minimum concentration of the drug that inhibited the growth of the fungus in the growth control group by 80% or more was taken as MIC. The concentration to be MIC (MIC90) in 9 strains out of the 10 strains (90%) measured was determined.
Reference documents for measurement method: Takako Shinoda et al.: opinion proposed by Committee for Clinical Laboratory Standards of The Japanese Society for Medical Mycology (1995-1997), Method for antifungal susceptibility testing of filamentous fungus, Medical Mycology Journal, 40: 239-257, 1999. Clinical Laboratory Standards Institute/National Committee for Clinical Laboratory Standards. Reference method for broth dilution antifungal susceptibility testing of filamentous fungus. Approved Standard M38-A2. Wayne, Pa.: National Committee for Clinical Laboratory Standards, 2008. Test Results

Scytalidium hyalinum = assay: Antifungal Activity Test 2: MIC by broth microdilution method (Alamar Blue); format: cell-based; conditions: Neoscytalidium hyalinum
Protocol: as §2
Scytalidium hyalinum strain of clinical isolate available from CBS (Netherlands) was used. The fungus was pre-cultured in an SDA medium, 0.1% (w/v) Tween 80-containing sterile saline was added to give a suspension, which was filtered through gauze to collect arthrospore. This was suspended in 0.1% (w/v) Tween 80-containing sterile saline, and added to a 20% Alamar Blue-containing medium to 2×10^4 cells/mL to give a fungal inoculum solution.
as §1
The test method was the same as in the aforementioned antifungal activity test 1, and the minimum concentration of the drug that inhibited the growth of the fungus in the growth control group by 80% or more was taken as MIC. The MIC range of the 4 strains measured and the geometric mean (GM) of each drug were determined.

[1] = clinical isolate CBS200.88, growth inhibited by 80% or more, read-out: MIC
[2] = clinical isolate CBS545.95, growth inhibited by 80% or more, read-out: MIC
[3] = clinical isolate CBS601.85, growth inhibited by 80% or more, read-out: MIC
[4] = clinical isolate CBS619.84, growth inhibited by 80% or more, read-out: MIC
[5] = geometric mean of the 4 strains measured, read-out: GM (geometric mean of MIC)
[6] = range of the 4 strains measured, read-out: MIC range

| SMILES | MIC (Scytalidium dimidiatum; clinical isolate 530129) [µg/mL] | MIC (Scytalidium dimidiatum; clinical isolate 530142) [µg/mL] | MIC (Scytalidium dimidiatum; clinical isolate 530251) [µg/mL] | MIC (Scytalidium dimidiatum; clinical isolate 530621) [µg/mL] | MIC (Scytalidium dimidiatum; clinical isolate 530633) [µg/mL] | MIC (Scytalidium dimidiatum; clinical isolate 530914) [µg/mL] | MIC (Scytalidium dimidiatum; clinical isolate 530946) [µg/mL] | MIC (Scytalidium dimidiatum; clinical isolate 530999) [µg/mL] | MIC (Scytalidium dimidiatum; clinical isolate 531581) [µg/mL] | MIC (Scytalidium dimidiatum; clinical isolate 531869) [µg/mL] | MIC90 (Scytalidium dimidiatum) [µg/mL] | MIC (Scytalidium hyalinum; [1]) [µg/mL] | MIC (Scytalidium hyalinum; [2]) [µg/mL] | MIC (Scytalidium hyalinum; [3]) [µg/mL] | MIC (Scytalidium hyalinum; [4]) [µg/mL] | MIC (Scytalidium hyalinum; [5]) [µg/mL] | MIC (Scytalidium hyalinum; [6]) [µg/mL] |
| --- | --- | --- | --- | --- | --- | --- | --- | --- | --- | --- | --- | --- | --- | --- | --- | --- | --- |
| CC(=O)N1CCN(c2ccc(OCC3COC(Cn4ccnc4)(c4ccc(Cl)cc4Cl)O3)cc2)CC1 (centres unmarked) [KCZ, ketoconazole] | 4 (≈ 7.53 µM) | > 4 | > 4 | > 4 | 4 (≈ 7.53 µM) | > 4 | > 4 | > 4 | > 4 | 2 (≈ 3.76 µM) | > 4 | 2 (≈ 3.76 µM) | 1 (≈ 1.88 µM) | 0.031 (≈ 0.0583 µM) | 2 (≈ 3.76 µM) | 0.59 (≈ 1.11 µM) | 0.031 to 2 (≈ 0.0583 to 3.76 µM) |
| OC(Cn1cncn1)(Cn1cncn1)c1ccc(F)cc1F [FCZ, fluconazole] | > 4 | > 4 | > 4 | > 4 | > 4 | > 4 | > 4 | > 4 | > 4 | > 4 | > 4 | > 4 | > 4 | 2 (≈ 6.53 µM) | > 4 | > 4 |  |
| CN(C/C=C/C#CC(C)(C)C)Cc1cccc2ccccc12 [TBF, terbinafine] | 0.5 (≈ 1.72 µM) | 0.25 (≈ 0.858 µM) | 0.5 (≈ 1.72 µM) | 0.5 (≈ 1.72 µM) | 0.25 (≈ 0.858 µM) | 0.25 (≈ 0.858 µM) | 1 (≈ 3.43 µM) | 0.5 (≈ 1.72 µM) | 0.5 (≈ 1.72 µM) | 0.5 (≈ 1.72 µM) | 0.5 (≈ 1.72 µM) | 0.25 (≈ 0.858 µM) | 0.5 (≈ 1.72 µM) | 1 (≈ 3.43 µM) | 0.25 (≈ 0.858 µM) | 0.42 (≈ 1.44 µM) | 0.25 to 1 (≈ 0.858 to 3.43 µM) |
| c1ccc(-c2ccc(C(c3ccccc3)n3ccnc3)cc2)cc1 (centres unmarked) [BFZ, bifonazole] | 0.25 (≈ 0.805 µM) | 0.13 (≈ 0.419 µM) | 0.25 (≈ 0.805 µM) | 0.25 (≈ 0.805 µM) | 0.13 (≈ 0.419 µM) | 0.13 (≈ 0.419 µM) | 0.25 (≈ 0.805 µM) | 0.13 (≈ 0.419 µM) | 0.25 (≈ 0.805 µM) | 0.13 (≈ 0.419 µM) | 0.25 (≈ 0.805 µM) | 0.063 (≈ 0.203 µM) | 0.063 (≈ 0.203 µM) | 0.031 (≈ 0.0999 µM) | 0.13 (≈ 0.419 µM) | 0.063 (≈ 0.203 µM) | 0.031 to 0.13 (≈ 0.0999 to 0.419 µM) |
| C[C@@H](c1ncncc1F)[C@](O)(Cn1cncn1)c1ccc(F)cc1F [VCZ, voriconazole] | 0.25 (≈ 0.716 µM) | 0.25 (≈ 0.716 µM) | 0.13 (≈ 0.372 µM) | 0.25 (≈ 0.716 µM) | 0.25 (≈ 0.716 µM) | 0.25 (≈ 0.716 µM) | 0.25 (≈ 0.716 µM) | 0.13 (≈ 0.372 µM) | 0.25 (≈ 0.716 µM) | 0.13 (≈ 0.372 µM) | 0.25 (≈ 0.716 µM) | 0.13 (≈ 0.372 µM) | 0.063 (≈ 0.18 µM) | 0.016 (≈ 0.0458 µM) | 0.13 (≈ 0.372 µM) | 0.064 (≈ 0.183 µM) | 0.016 to 0.13 (≈ 0.0458 to 0.372 µM) |
| CCC(C)(C)c1ccc(CC(C)CN2C[C@@H](C)O[C@@H](C)C2)cc1 (some centres unmarked) [AMO, amorolfine] | 0.5 (≈ 1.57 µM) | 1 (≈ 3.15 µM) | 2 (≈ 6.3 µM) | 1 (≈ 3.15 µM) | 0.5 (≈ 1.57 µM) | 2 (≈ 6.3 µM) | 1 (≈ 3.15 µM) | 1 (≈ 3.15 µM) | 0.5 (≈ 1.57 µM) | 0.5 (≈ 1.57 µM) | 2 (≈ 6.3 µM) | 2 (≈ 6.3 µM) | 2 (≈ 6.3 µM) | 2 (≈ 6.3 µM) | 2 (≈ 6.3 µM) | 2 (≈ 6.3 µM) | 2 (≈ 6.3 µM) |
